How the values were obtained:
[1] = target: T1, 5-hydroxytryptamine receptor 3A/3B (Mus musculus, UniProt P23979+Q9JHJ5); test: Compound was evaluated for binding to Serotonin 5-hydroxytryptamine 3 receptor in N1E cells using [3H]- -Tropisetron as radioligand
T1 sequence (P23979 whole entry): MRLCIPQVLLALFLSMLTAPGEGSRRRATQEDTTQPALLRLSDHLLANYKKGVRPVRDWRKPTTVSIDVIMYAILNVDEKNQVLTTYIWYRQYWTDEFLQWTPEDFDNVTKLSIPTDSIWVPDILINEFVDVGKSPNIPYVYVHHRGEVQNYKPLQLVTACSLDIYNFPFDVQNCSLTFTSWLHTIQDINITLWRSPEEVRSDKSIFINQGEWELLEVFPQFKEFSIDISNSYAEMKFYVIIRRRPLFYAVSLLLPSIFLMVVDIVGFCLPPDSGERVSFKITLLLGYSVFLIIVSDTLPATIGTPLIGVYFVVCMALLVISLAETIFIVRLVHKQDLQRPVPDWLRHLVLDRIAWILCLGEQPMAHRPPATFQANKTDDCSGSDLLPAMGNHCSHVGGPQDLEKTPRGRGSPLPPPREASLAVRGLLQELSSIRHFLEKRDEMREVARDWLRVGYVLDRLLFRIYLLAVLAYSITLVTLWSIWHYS
T1 sequence (Q9JHJ5 whole entry): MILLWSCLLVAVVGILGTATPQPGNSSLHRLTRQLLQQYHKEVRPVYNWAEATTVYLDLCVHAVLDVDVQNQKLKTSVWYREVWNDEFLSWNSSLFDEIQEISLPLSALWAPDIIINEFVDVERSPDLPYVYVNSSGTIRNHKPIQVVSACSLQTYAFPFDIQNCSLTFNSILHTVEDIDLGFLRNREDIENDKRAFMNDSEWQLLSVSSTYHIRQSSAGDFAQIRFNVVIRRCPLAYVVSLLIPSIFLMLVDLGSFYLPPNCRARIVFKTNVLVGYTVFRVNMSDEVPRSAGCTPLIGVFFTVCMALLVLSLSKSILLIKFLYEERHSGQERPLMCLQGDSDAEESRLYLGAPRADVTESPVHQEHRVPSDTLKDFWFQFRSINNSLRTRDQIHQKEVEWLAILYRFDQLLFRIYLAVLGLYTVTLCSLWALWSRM

[2] = target: T1, 5-hydroxytryptamine receptor 3A/3B; test: Compound was evaluated for binding to 5-hydroxytryptamine 3 receptor in N1E cells using [3H]- -Tropisetron as radioligand

**Q.** For `CN1C2CC(OC(=O)c3c[nH]c4ccccc34)CC1C1OC12` (stereo not drawn), which Kd [1] is on record?
**A.** 0.631 nM

**Q.** `CN1[C@@H]2CC[C@H]1C[C@@H](OC(=O)c1c[nH]c3ccccc13)C2` [(3-ENDO)-8-METHYL-8-AZABICYCLO[3.2.1]OCT-3-YL 1H-INDOLE-3-CARBOXYLATE] was tested. Which Kd [1] did it give?
**A.** 0.794 nM

**Q.** How did the Kd [2] turn out when `Cc1nccn1CC1CCc2c(c3ccccc3n2C)C1=O` (stereo not drawn) [NSC_68647] was run?
**A.** 20 nM

— BindingDB's records for doi:10.1016/S0960-894X(00)80170-5 (1992)
